Source: the supplement of paper PMC10307832

Tests used:
Test in all cases: relative viability (nuclei count vs DMSO), 5 days (fraction); higher = more cells survive
A549 = system: A549
How it was run: (§1)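 One day after seeding in 1536-well plates, lung cancer cell lines were dosed by pin tool. Dosing was either single-drug or a fixed anchor-drug dose plus five library-drug doses (not always all listed) in √10 steps. After 5 days, nuclei were stained in one fix-and-stain step and counted on 4× images, and relative viability is the nuclei count of treated wells over that of vehicle wells, given as the median of duplicate plates.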

ABC-1 = system: ABC-1
How it was run: as §1

Calu-6 = system: Calu-6
How it was run: as §1

EBC-1 = system: EBC-1
How it was run: as §1

EKVX = system: EKVX
How it was run: as §1

HCC-44 = system: HCC-44
How it was run: as §1

IA-LM = system: IA-LM
How it was run: as §1

NCI-H1299 = system: NCI-H1299
How it was run: as §1

NCI-H1703 = system: NCI-H1703
How it was run: as §1

NCI-H1993 = system: NCI-H1993
How it was run: as §1

NCI-H2085 = system: NCI-H2085
How it was run: as §1

NCI-H2126 = system: NCI-H2126
How it was run: as §1

RERF-LC-KJ = system: RERF-LC-KJ
How it was run: as §1

## CC(=O)O[C@@]12CO[C@@H]1C[C@H](O)[C@@]1(C)C(=O)[C@H](O)C3=C(C)[C@@H](OC(=O)[C@H](O)[C@@H](NC(=O)OC(C)(C)C)c4ccccc4)C[C@@](O)([C@@H](OC(=O)c4ccccc4)[C@H]21)C3(C)C [Docetaxel] + CS(=O)(=O)CCNCc1ccc(-c2ccc3ncnc(Nc4ccc(OCc5cccc(F)c5)c(Cl)c4)c3c2)o1 [Lapatinib] (partner 2 µM)
A549; first compound 0.0002 µM
  relative viability: 0.972
A549; first compound 0.002 µM
  relative viability: 0.0898
A549; first compound 0.006325 µM
  relative viability: 0.0769
A549; first compound 0.02 µM
  relative viability: 0.0547
ABC-1; first compound 0.0002 µM
  relative viability: 1.21
ABC-1; first compound 0.000632 µM
  relative viability: 1.12
ABC-1; first compound 0.002 µM
  relative viability: 1.14
ABC-1; first compound 0.006325 µM
  relative viability: 0.797
ABC-1; first compound 0.02 µM
  relative viability: 0.577
Calu-6; first compound 0.0002 µM
  relative viability: 0.982
Calu-6; first compound 0.000632 µM
  relative viability: 0.879
Calu-6; first compound 0.002 µM
  relative viability: 0.286
Calu-6; first compound 0.006325 µM
  relative viability: 0.125
Calu-6; first compound 0.02 µM
  relative viability: 0.112
EBC-1; first compound 0.0002 µM
  relative viability: 0.201
EBC-1; first compound 0.000632 µM
  relative viability: 0.227
EBC-1; first compound 0.002 µM
  relative viability: 0.228
EBC-1; first compound 0.006325 µM
  relative viability: 0.197
EBC-1; first compound 0.02 µM
  relative viability: 0.195
EKVX; first compound 0.0002 µM
  relative viability: 0.212
EKVX; first compound 0.000632 µM
  relative viability: 0.173
EKVX; first compound 0.002 µM
  relative viability: 0.14
EKVX; first compound 0.006325 µM
  relative viability: 0.141
EKVX; first compound 0.02 µM
  relative viability: 0.119
HCC-44; first compound 0.0002 µM
  relative viability: 0.936
HCC-44; first compound 0.000632 µM
  relative viability: 0.961
HCC-44; first compound 0.002 µM
  relative viability: 0.621
HCC-44; first compound 0.006325 µM
  relative viability: 0.22
HCC-44; first compound 0.02 µM
  relative viability: 0.115
IA-LM; first compound 0.0002 µM
  relative viability: 0.46
IA-LM; first compound 0.000632 µM
  relative viability: 0.153
IA-LM; first compound 0.002 µM
  relative viability: 0.0797
IA-LM; first compound 0.006325 µM
  relative viability: 0.069
IA-LM; first compound 0.02 µM
  relative viability: 0.068
NCI-H1299; first compound 0.0002 µM
  relative viability: 0.935
NCI-H1299; first compound 0.000632 µM
  relative viability: 0.968
NCI-H1299; first compound 0.002 µM
  relative viability: 0.704
NCI-H1299; first compound 0.006325 µM
  relative viability: 0.467
NCI-H1299; first compound 0.02 µM
  relative viability: 0.298
NCI-H1703; first compound 0.0002 µM
  relative viability: 1.1
NCI-H1703; first compound 0.000632 µM
  relative viability: 0.664
NCI-H1703; first compound 0.002 µM
  relative viability: 0.219
NCI-H1703; first compound 0.006325 µM
  relative viability: 0.157
NCI-H1703; first compound 0.02 µM
  relative viability: 0.148
NCI-H1993; first compound 0.0002 µM
  relative viability: 0.796
NCI-H1993; first compound 0.000632 µM
  relative viability: 0.824
NCI-H1993; first compound 0.002 µM
  relative viability: 0.627
NCI-H1993; first compound 0.006325 µM
  relative viability: 0.534
NCI-H1993; first compound 0.02 µM
  relative viability: 0.451
NCI-H2085; first compound 0.0002 µM
  relative viability: 0.787
NCI-H2085; first compound 0.000632 µM
  relative viability: 0.71
NCI-H2085; first compound 0.002 µM
  relative viability: 0.507
NCI-H2085; first compound 0.006325 µM
  relative viability: 0.462
NCI-H2085; first compound 0.02 µM
  relative viability: 0.342
NCI-H2126; first compound 0.0002 µM
  relative viability: 0.738
NCI-H2126; first compound 0.000632 µM
  relative viability: 0.683
NCI-H2126; first compound 0.002 µM
  relative viability: 0.562
NCI-H2126; first compound 0.006325 µM
  relative viability: 0.395
NCI-H2126; first compound 0.02 µM
  relative viability: 0.253
RERF-LC-KJ; first compound 0.0002 µM
  relative viability: 0.808
RERF-LC-KJ; first compound 0.000632 µM
  relative viability: 0.841
RERF-LC-KJ; first compound 0.002 µM
  relative viability: 0.498
RERF-LC-KJ; first compound 0.006325 µM
  relative viability: 0.177
RERF-LC-KJ; first compound 0.02 µM
  relative viability: 0.198

## CC(=O)O[C@@]12CO[C@@H]1C[C@H](O)[C@@]1(C)C(=O)[C@H](O)C3=C(C)[C@@H](OC(=O)[C@H](O)[C@@H](NC(=O)OC(C)(C)C)c4ccccc4)C[C@@](O)([C@@H](OC(=O)c4ccccc4)[C@H]21)C3(C)C [Docetaxel] + CS(=O)(=O)N1CCN(Cc2cc3nc(-c4cccc5[nH]ncc45)nc(N4CCOCC4)c3s2)CC1 [Pictilisib] (partner 1 µM)
A549; first compound 0.0002 µM
  relative viability: 0.44
A549; first compound 0.000632 µM
  relative viability: 0.22
A549; first compound 0.002 µM
  relative viability: 0.0741
A549; first compound 0.006325 µM
  relative viability: 0.0602
A549; first compound 0.02 µM
  relative viability: 0.035
ABC-1; first compound 0.0002 µM
  relative viability: 0.772
ABC-1; first compound 0.000632 µM
  relative viability: 0.685
ABC-1; first compound 0.002 µM
  relative viability: 0.442
ABC-1; first compound 0.006325 µM
  relative viability: 0.304
ABC-1; first compound 0.02 µM
  relative viability: 0.253
Calu-6; first compound 0.0002 µM
  relative viability: 0.937
Calu-6; first compound 0.000632 µM
  relative viability: 0.754
Calu-6; first compound 0.006325 µM
  relative viability: 0.128
Calu-6; first compound 0.02 µM
  relative viability: 0.0823
EBC-1; first compound 0.0002 µM
  relative viability: 0.347
EBC-1; first compound 0.000632 µM
  relative viability: 0.267
EBC-1; first compound 0.002 µM
  relative viability: 0.189
EBC-1; first compound 0.006325 µM
  relative viability: 0.164
EKVX; first compound 0.0002 µM
  relative viability: 0.447
EKVX; first compound 0.000632 µM
  relative viability: 0.45
EKVX; first compound 0.002 µM
  relative viability: 0.26
EKVX; first compound 0.006325 µM
  relative viability: 0.187
EKVX; first compound 0.02 µM
  relative viability: 0.119
HCC-44; first compound 0.0002 µM
  relative viability: 0.406
HCC-44; first compound 0.000632 µM
  relative viability: 0.44
HCC-44; first compound 0.002 µM
  relative viability: 0.421
HCC-44; first compound 0.006325 µM
  relative viability: 0.144
HCC-44; first compound 0.02 µM
  relative viability: 0.0949
IA-LM; first compound 0.0002 µM
  relative viability: 0.183
IA-LM; first compound 0.000632 µM
  relative viability: 0.11
IA-LM; first compound 0.002 µM
  relative viability: 0.0755
IA-LM; first compound 0.006325 µM
  relative viability: 0.0696
IA-LM; first compound 0.02 µM
  relative viability: 0.064
NCI-H1299; first compound 0.0002 µM
  relative viability: 0.761
NCI-H1299; first compound 0.000632 µM
  relative viability: 0.579
NCI-H1299; first compound 0.002 µM
  relative viability: 0.305
NCI-H1299; first compound 0.006325 µM
  relative viability: 0.14
NCI-H1299; first compound 0.02 µM
  relative viability: 0.109
NCI-H1703; first compound 0.0002 µM
  relative viability: 0.235
NCI-H1703; first compound 0.000632 µM
  relative viability: 0.26
NCI-H1703; first compound 0.002 µM
  relative viability: 0.2
NCI-H1703; first compound 0.006325 µM
  relative viability: 0.161
NCI-H1703; first compound 0.02 µM
  relative viability: 0.136
NCI-H1993; first compound 0.0002 µM
  relative viability: 0.746
NCI-H1993; first compound 0.000632 µM
  relative viability: 0.706
NCI-H1993; first compound 0.002 µM
  relative viability: 0.729
NCI-H1993; first compound 0.006325 µM
  relative viability: 0.682
NCI-H1993; first compound 0.02 µM
  relative viability: 0.545
NCI-H2085; first compound 0.0002 µM
  relative viability: 0.532
NCI-H2085; first compound 0.000632 µM
  relative viability: 0.467
NCI-H2085; first compound 0.002 µM
  relative viability: 0.41
NCI-H2085; first compound 0.006325 µM
  relative viability: 0.374
NCI-H2085; first compound 0.02 µM
  relative viability: 0.237
NCI-H2126; first compound 0.0002 µM
  relative viability: 0.518
NCI-H2126; first compound 0.000632 µM
  relative viability: 0.541
NCI-H2126; first compound 0.002 µM
  relative viability: 0.393
NCI-H2126; first compound 0.006325 µM
  relative viability: 0.362
NCI-H2126; first compound 0.02 µM
  relative viability: 0.257
RERF-LC-KJ; first compound 0.0002 µM
  relative viability: 0.525
RERF-LC-KJ; first compound 0.000632 µM
  relative viability: 0.408
RERF-LC-KJ; first compound 0.002 µM
  relative viability: 0.189
RERF-LC-KJ; first compound 0.006325 µM
  relative viability: 0.223
RERF-LC-KJ; first compound 0.02 µM
  relative viability: 0.104
